Target: recombinant HCV NS5B (genotype 1b) NS5BCΔ21 (Hepatitis C virus genotype 1b, UniProt P26663)
Assay: in vitro NS5B RNA dependent RNA polymerase
Format: biochemical
Settings: Supplementary data, Table S1

| SMILES | NS5B inhibitory activity (in words) |
| --- | --- |
| CCN1C(=O)C(=Cc2ccc(Cl)cc2Cl)SC1=S [5-(2,4-dichlorobenzylidene)-3-ethyl-2-thioxothiazolidin-4-one] | either inactive or poorly active |
| O=C(O)CN1C(=O)C(=Cc2ccccc2)SC1=S [2-(5-benzylidene-4-oxo-2-thioxothiazolidin-3-yl)acetic acid] | either inactive or poorly active |
| O=C(O)CN1C(=O)CSC1=S [2-(4-oxo-2-thioxothiazolidin-3-yl)acetic acid] | either inactive or poorly active |

Reference: paper PMC2956004 (Bioorganic & medicinal chemistry, 2010)
